Source: patent US9695192B2, “Fused heterocyclic compounds as ion channel modulators” (GILEAD SCIENCES, INC., priority 2011, dated 2017)
Like-named read-outs stand apart in the source and are kept apart here.

Target: hNav1.5 Peak INa (Homo sapiens, UniProt Q14524)
Experiment: Peak INa screening assay (tonic block and use-dependent block)
Format: cell-based
Procedure: The assay uses an HEK293 (human embryonic kidney) cell line heterologously expressing the wild-type human cardiac sodium channel, hNav1.5, purchased from Millipore (Billerica, Mass.). No beta subunits were coexpressed with the Na channel alpha subunit. Cells are maintained with standard tissue culture procedures and stable channel expression is maintained with 400 μg/mL Geneticin in the culture medium. […] Experiments are carried out at 23-25° C. […] Currents through open sodium channels are automatically recorded and stored in the Sophion Bioscience Oracle database (Sophion Bioscience, Copenhagen, Denmark). Analysis is performed using QPatch Assay and database software and data are compiled in Excel. Compound stocks are routinely made by the Gilead Sample Bank in plastic vials to 10 mM in dimethyl sulfoxide (DMSO). […] Stocks are sonicated as necessary. […] Compounds are diluted in extracellular solution to 1 μM in glass vials and then transferred to glass well plates before robotic addition to the cells. […] Good separation between the concentrations of test compound to reduce late and peak INa is beneficial to enable separation of the desired effect to reduce late INa-induced electrical and mechanical dysfunction from the undesired effect to reduce peak INa, which can lead to slowing or block of conduction of electrical excitation in the heart. It is contemplated that the compounds of Formula I avoid significant block of peak INa. […] Analysis of peak INa generally requires correction for rundown before determining the % block of peak current by the tested compound. […] Use-dependent block refers to the accumulation of block with increased frequency of channel activation. […] It is therefore expected that reduction of peak INa by compounds of this disclosure will be greater at high heart rates, such as those during tachyarrhythmias, than at normal heart rates. […] The intracellular solution used for the Peak INa assay is the same as outlined for the Late INa assay (see above). […] After establishing the whole cell recording configuration, channels were stimulated to open with low frequency stimulation (0.1 Hz) for 7 minutes so that the recording can be monitored and the extent to which the recording has stabilized can be assessed. […] Both TB and UDB were analyzed by incorporating rundown correction for the peak INa and UDB as calculated by compensating for the small use-dependent effect of the stimulation protocol on peak INa in the absence of compound.

hNav1.5 Peak INa, sequence (Q14524 whole entry): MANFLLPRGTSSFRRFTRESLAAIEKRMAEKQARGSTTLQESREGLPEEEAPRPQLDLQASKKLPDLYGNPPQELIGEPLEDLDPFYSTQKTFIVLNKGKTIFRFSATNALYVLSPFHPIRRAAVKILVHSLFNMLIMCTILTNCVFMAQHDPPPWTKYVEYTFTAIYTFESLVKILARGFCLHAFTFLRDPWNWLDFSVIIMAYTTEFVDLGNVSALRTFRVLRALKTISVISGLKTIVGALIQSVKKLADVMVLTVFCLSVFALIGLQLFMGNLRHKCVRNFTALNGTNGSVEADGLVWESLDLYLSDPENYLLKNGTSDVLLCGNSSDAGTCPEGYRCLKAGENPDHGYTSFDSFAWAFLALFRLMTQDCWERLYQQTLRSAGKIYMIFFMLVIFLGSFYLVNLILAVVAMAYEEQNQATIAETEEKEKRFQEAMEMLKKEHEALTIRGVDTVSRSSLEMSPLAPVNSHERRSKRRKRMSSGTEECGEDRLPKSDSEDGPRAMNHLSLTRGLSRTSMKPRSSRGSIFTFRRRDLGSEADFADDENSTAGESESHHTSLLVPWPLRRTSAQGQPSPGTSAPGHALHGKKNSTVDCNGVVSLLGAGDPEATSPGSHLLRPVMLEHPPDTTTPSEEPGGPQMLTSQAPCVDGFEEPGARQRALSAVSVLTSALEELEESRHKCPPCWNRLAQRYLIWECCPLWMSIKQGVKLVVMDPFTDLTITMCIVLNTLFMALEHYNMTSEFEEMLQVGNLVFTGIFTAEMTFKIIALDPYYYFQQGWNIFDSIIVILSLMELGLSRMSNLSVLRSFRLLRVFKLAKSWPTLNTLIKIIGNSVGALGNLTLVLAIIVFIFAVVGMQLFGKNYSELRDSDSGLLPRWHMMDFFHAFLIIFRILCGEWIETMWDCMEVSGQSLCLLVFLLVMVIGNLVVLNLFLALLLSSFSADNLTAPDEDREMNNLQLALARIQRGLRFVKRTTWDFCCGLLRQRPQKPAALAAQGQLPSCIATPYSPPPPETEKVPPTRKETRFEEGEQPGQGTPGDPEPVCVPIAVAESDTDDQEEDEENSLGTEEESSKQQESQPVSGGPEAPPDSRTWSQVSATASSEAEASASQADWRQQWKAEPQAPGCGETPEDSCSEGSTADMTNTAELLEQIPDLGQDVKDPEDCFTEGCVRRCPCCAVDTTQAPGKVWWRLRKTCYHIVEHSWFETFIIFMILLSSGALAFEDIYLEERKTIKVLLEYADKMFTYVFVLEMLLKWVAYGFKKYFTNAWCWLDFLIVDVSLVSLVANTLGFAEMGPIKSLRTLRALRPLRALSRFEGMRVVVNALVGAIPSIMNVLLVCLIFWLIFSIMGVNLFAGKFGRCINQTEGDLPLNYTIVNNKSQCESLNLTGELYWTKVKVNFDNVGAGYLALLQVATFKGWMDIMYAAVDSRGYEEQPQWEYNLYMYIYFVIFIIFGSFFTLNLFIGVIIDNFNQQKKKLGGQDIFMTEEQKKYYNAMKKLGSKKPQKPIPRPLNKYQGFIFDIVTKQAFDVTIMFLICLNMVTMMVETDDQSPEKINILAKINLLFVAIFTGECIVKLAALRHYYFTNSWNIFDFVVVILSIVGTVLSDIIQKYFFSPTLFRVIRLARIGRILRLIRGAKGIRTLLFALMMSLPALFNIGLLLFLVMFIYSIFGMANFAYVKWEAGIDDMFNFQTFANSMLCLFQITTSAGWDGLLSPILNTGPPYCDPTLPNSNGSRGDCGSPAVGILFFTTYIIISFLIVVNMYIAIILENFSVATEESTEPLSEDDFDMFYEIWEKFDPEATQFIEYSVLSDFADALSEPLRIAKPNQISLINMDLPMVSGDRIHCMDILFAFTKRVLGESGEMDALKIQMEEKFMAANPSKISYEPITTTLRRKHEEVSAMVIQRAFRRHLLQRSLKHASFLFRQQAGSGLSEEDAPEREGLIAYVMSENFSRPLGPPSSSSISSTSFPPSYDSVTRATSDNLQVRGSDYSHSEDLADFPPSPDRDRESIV

Structure (SMILES): FC(F)(F)c1ccc(-c2ccc3c(c2)C(NCc2ccccc2)=NCCO3)cc1 [II-2, N-benzyl-7-(4-(trifluoromethyl)phenyl)-2,3-dihydrobenzo[f][1,4]oxazepin-5-amine]
- inhibition at 1 µM (at 1 μM, 3 Hz stimulation, holding potential −100 mV, read-out: Peak UDB (use-dependent block of peak INa) % Inhibition): 57%
- inhibition at 1 µM (read-out: Peak TB (tonic block of peak INa) % Inhibition): 27%
